{"source": "patent US12454675B2", "about": "“Method of increasing protein yield in mammalian cells in serum-free culture medium” (AGENCY FOR SCIENCE, TECHNOLOGY AND RESEARCH, priority 2016, dated 2025)", "key": {"[1]": {"test_system": "HEK293 cells", "test": "Disaccharides to support growth of HEK293 cells in PFCDM", "type": "cell-based", "details": "10 g/l sugar, seeding 1.0×10^6 cells/ml, 22 days", "excerpt": "(§1) In (A) CHO-K1 cells were cultivated in a serum-free protein-free cell culture medium, HyQ PF-CHO, with 3.6 g/l of different sugars (maltose, sucrose, lactose, trehalose or glucose) as carbohydrate source. The viable cell densities (lined markers) and culture viabilities (marker only) of these cultures at the beginning and end of each passage over a period of 74 days were plotted. Cultures with sucrose, lactose or trehalose were terminated on Day 31 due to the decreased culture viabilities and reduced viable cell densities. The experiment was repeated with a seeding cell density of 1.0×10^6 cells/ml to obtain similar results. In (B) CHO-DG44 cells were cultivated with a seeding cell density of 1.0×10^6 cells/ml in a serum-free protein-free cell culture medium, HyQ PF-CHO, with 10 g/l of different sugars (maltose, sucrose, lactose, trehalose or glucose) as carbohydrate source. The viable cell densities (lined markers) and cell viabilities (marker only) of these cultures at the beginning and end of each passage over a period of 22 days were plotted. In (C) HEK293 cells were cultivated with a seeding cell density of 1.0×10^6 cells/ml in a protein-free chemically defined cell culture medium, PFCDM, with 10 g/l of different sugars (maltose, sucrose, lactose, trehalose or glucose) as carbohydrate source. The viable cell densities (lined markers) and cell viabilities (marker only) of these cultures at the beginning and end of each passage over a period of 22 days were plotted. Cultures with sucrose, lactose or trehalose were terminated on Day 14 due to the decreased culture viabilities and reduced viable cell densities."}, "[2]": {"test": "Maltose and glucose profiles in cell-free conditioned media", "type": "physicochemical", "details": "cell-free conditioned media of Days 2, 4, 6, 8; 3 g/l maltose; 37° C., 3 days", "procedure": "In (A) SH87 cell were routinely maintained in glucose-only PFCDM was sub-cultivated into PFCDM with 4 g/l glucose, or 4 g/l glucose+3 g/l maltose. On Days 2, 4, 6 and 8, cell-free conditioned medium (CM) were harvested from both cultures. Viable cell densities (lined marker) and culture viabilities (marker only) were also monitored. In (B) CM from the maltose supplemented culture were incubated for a further 3 days at 37° C. Samples were harvested daily from these CM, starting from the day of harvest, to determine glucose and maltose concentrations. In (C) CM harvested from the glucose culture were spiked with maltose to a final concentration of 3 g/l prior to further incubation at 37° C. Samples from these CM were harvested daily for a further three (3) days to determine glucose and maltose concentrations. The averages and standard deviations from two (2) replicate shake flasks were plotted.\nTo further validate that the maltose was indeed utilized by the cells and not hydrolyzed in the culture media, cell-free conditioned media (CM) from Days 2, 4, 6 and 8 were obtained from a 3 g/l maltose supplemented culture as well as a 4 g/l glucose culture. 3 g/l maltose was spiked into the CM from the glucose culture, and both sets of CM were monitored over 3 days for changes in glucose and maltose concentrations at 37° C. (FIG. 4). […]"}, "[3]": {"test_system": "SH87 (CHO-K1 cell line producing an anti-Her2 monoclonal antibody)", "test": "SH87 shake flask batch cultures in PFCDM with glucose and maltose", "type": "cell-based, Chinese Hamster", "details": "20 g/l maltose supplemented vs 14 g/l glucose and 10 g/l maltose supplemented cultures", "procedure": "Viable cell density and culture viability were determined by Trypan blue dye exclusion method using Vi-Cell XR Cell Viability Analyzer (Beckman Coulter, Brea, CA) according to manufacturer's instructions. For biochemical and other cell culture parameter analyses, 1 ml of culture sample was centrifuged at 8000 g for 10 minutes to obtain clarified supernatant. Concentrations of ammonium, glutamine, glucose and lactate were analyzed by the BioProfile 100 Plus (Nova Biomedical, Waltham, MA). Osmolality was measured using a vapor pressure osmometer (Vapro 5520, Wescor, Logan, UT), according to manufacturer's instructions. Maltose concentration was quantified using Maltose Colorimetric/Fluorometric Assay Kit (Biovision, Milpitas, CA), according to manufacturer's instructions. […] Cells were cultivated in single-use Erlenmeyer flasks (Corning), with a cell seeding density of 0.3×10^6 cells/ml in duplicates. Cell culture samples were collected and analyzed daily throughout the duration of the growth profile experiment until culture viabilities fell below 50%. When necessary, culture supernatant samples were stored at -20° C. for further analysis."}, "[4]": {"test_system": "CHO-K1 cells", "test": "Adaptation of CHO-K1 cells into HyQ PF-CHO media with different disaccharides", "type": "cell-based, Chinese Hamster", "details": "3.6 g/l sugar", "procedure": "Viable cell density and culture viability were determined by Trypan blue dye exclusion method using Vi-Cell XR Cell Viability Analyzer (Beckman Coulter, Brea, CA) according to manufacturer's instructions. For biochemical and other cell culture parameter analyses, 1 ml of culture sample was centrifuged at 8000 g for 10 minutes to obtain clarified supernatant. […] At each passage during the adaptation process, viable cell density and culture viability before passage and after inoculation into fresh media were determined. […] Osmolality of these culture media were determined to be between 308 and 324 mOsm/kg, well within the range for optimal mammalian cell culture. The viable cell densities and culture viabilities of these cultures at the beginning and end of each passage over a period of 74 days are shown in FIG. 1. […] However, culture viabilities and viable cell densities of the maltose culture started to pick up on Day 14. Proliferation of the cells in maltose culture then maintained over the period of the time studied, while those in the other disaccharides were terminated on Day 31 due to the lack of cell growth and depressed culture viabilities."}, "[5]": {"test_system": "CHO-DG44 cells", "test": "Disaccharides to support growth of CHO-DG44 cells in HyQ PF-CHO", "type": "cell-based, Chinese Hamster", "details": "10 g/l sugar, 22 days", "excerpt": "as §1\nTo determine whether the same approach can be applied on other CHO cell lines, the use of disaccharides to support the growth of CHO-DG44 cells was evaluated. These cells were cultivated with 10 g/l of maltose, sucrose, lactose, trehalose or glucose as energy source in a serum-free protein-free cell culture medium HyQ PF-CHO. The viable cell densities and culture viabilities of these cultures at the beginning and end of each passage over a period of 22 days are shown in FIG. 1B."}}}
{"smiles": "OC[C@H]1O[C@H](O[C@H]2[C@H](O)[C@@H](O)[C@H](O)O[C@@H]2CO)[C@H](O)[C@@H](O)[C@@H]1O", "note": "[maltose]", "values": [{"measurement": "proliferation in serum-free culture medium with the sugar as sugar source", "setting": "[1]", "value": "can proliferate"}, {"measurement": "maltose hydrolysis in conditioned culture media", "setting": "[2]", "value": "not occurring spontaneously"}, {"measurement": "improvement in maximum IgG titer of batch culture", "setting": "[3]", "value": 15, "unit": "%"}, {"measurement": "day on which culture viabilities and viable cell densities started to pick up", "setting": "[4]", "value": 14, "unit": "days"}, {"measurement": "proliferation in serum-free protein-free culture medium with the sugar as sugar source", "setting": "[4]; seeding 0.3×10^6 cells/ml, 74 days", "value": "can proliferate"}, {"measurement": "proliferation in serum-free protein-free culture medium with the sugar as sugar source", "setting": "[5]", "value": "can also proliferate"}]}
